From publication PMC10354048 (Communications Chemistry, 2023)
Where no end group is shown, it is not given here.

Assays:
S. epidermidis CW130500 = assay: microbe, parasite or virus in culture; details: broth microdilution per CSLI guidelines, cation-adjusted Mueller Hinton Broth 2, 5 × 10^5 CFU/mL, 37 °C, 20 h, range 64–0.125 µg/mL, triplicate
Protocol: (§1) Minimum Inhibitory Concentrations (MIC) were determined for each of the bacteriocins and controls using a broth microdilution method, as per CSLI guidelines for microbial susceptibility testing. The peptides were dissolved in sterile deionized water to prepare the working stocks, with concentrations determined by UV absorbance at 280 nm[56]. Overnight cultures from the strains of interest were incubated with shaking overnight at 37 °C. Cation-adjusted Mueller Hinton Broth 2 (MHB 2) was used for the S. aureus, and S. epidermidis strains and Brain Heart Infusion (BHI) broth was utilized for the E. faecalis and E. faecium strains. The cultures were prepared and diluted to the turbidity of a 0.5 McFarland standard using MHB or BHI fresh media. Increasing concentrations of the leaderless bacteriocins were added to a 96-well polypropylene plate. The range tested for each bacteriocin was 64–0.125 µg/mL. The bacterial culture was further diluted and mixed in a 1:1 ratio with the bacteriocin solution to yield a final concentration in the wells of 5 × 10^5 CFU/mL. […] A 1:1000 dilution of the growth control was prepared in the respective media and plated onto agar (100 μL) to ensure the correct inoculum concentration (5 × 10^5 CFU/mL indicated by ≈ 50 bacterial colonies). The 96-well and agar plates were incubated at 37 °C, and growth was assessed by the formation of a pellet observable with the naked eye after 20 h. […] Each assay was performed in triplicate.
(§2) Materials and instruments […]
(§3) Minimum Inhibitory Concentration (MIC) assays were conducted in 96-Well Clear polypropylene corner notch microplates (Corning, #11313595). For the assay media, cation adjusted Mueller Hinton Broth 2 (Sigma Aldrich, #90922) was used for the S. aureus, and S. epidermidis strains and Brain Heart Infusion broth (BD, #221812) was used for the E. faecalis and E. faecium […]
(§4) used, as well as melittin prepared by automated SPPS. Experimental bacterial strains used were procured from the American Type Culture collection (S. aureus 29213) and the Canadian Antimicrobial Resistance Alliance

E. faecalis CW133346 = assay: microbe, parasite or virus in culture; details: broth microdilution per CSLI guidelines, Brain Heart Infusion broth, 5 × 10^5 CFU/mL, 37 °C, 20 h, range 64–0.125 µg/mL, triplicate
Protocol: as §1, §2, §3, §4

E. faecium CW130826 = assay: microbe, parasite or virus in culture; details: broth microdilution per CSLI guidelines, Brain Heart Infusion broth, 5 × 10^5 CFU/mL, 37 °C, 20 h, range 64–0.125 µg/mL, triplicate
Protocol: as §1, §2, §3, §4

E. faecium CW131126 = assay: microbe, parasite or virus in culture; details: broth microdilution per CSLI guidelines, Brain Heart Infusion broth, 5 × 10^5 CFU/mL, 37 °C, 20 h, range 64–0.125 µg/mL, triplicate
Protocol: as §1, §2, §3, §4

S. aureus CW115852 = assay: microbe, parasite or virus in culture; details: broth microdilution per CSLI guidelines, cation-adjusted Mueller Hinton Broth 2, 5 × 10^5 CFU/mL, 37 °C, 20 h, range 64–0.125 µg/mL, average of three repeat assays
Protocol: (§5) Minimum inhibitory concentrations, determined by broth microdilution, are expressed as an average of three repeat assays. […] [a] MIC values expressed in μg/mL, [b] AC: American Type Culture Collection strain, [c] CW: CANWARD collection clinical isolate strain.33.
as §1, §2
(§6) Minimum Inhibitory Concentration (MIC)
(§7) assays were conducted in 96-Well Clear polypropylene corner notch microplates (Corning, #11313595). For the […]

E. faecalis CW133003 = assay: microbe, parasite or virus in culture; details: broth microdilution per CSLI guidelines, Brain Heart Infusion broth, 5 × 10^5 CFU/mL, 37 °C, 20 h, range 64–0.125 µg/mL, average of three repeat assays
Protocol: as §5, §1, §2, §6, §7

S. aureus AC29213 = assay: microbe, parasite or virus in culture; details: broth microdilution per CSLI guidelines, cation-adjusted Mueller Hinton Broth 2, 5 × 10^5 CFU/mL, 37 °C, 20 h, range 64–0.125 µg/mL, average of three repeat assays
Protocol: as §5, §1, §2, §6, §7

S. aureus CW114125 = assay: microbe, parasite or virus in culture; details: broth microdilution per CSLI guidelines, cation-adjusted Mueller Hinton Broth 2, 5 × 10^5 CFU/mL, 37 °C, 20 h, range 64–0.125 µg/mL, average of three repeat assays
Protocol: as §5, §1, §2, §6, §7

S. epidermidis CW131612 = assay: microbe, parasite or virus in culture; details: broth microdilution per CSLI guidelines, cation-adjusted Mueller Hinton Broth 2, 5 × 10^5 CFU/mL, 37 °C, 20 h, range 64–0.125 µg/mL, average of three repeat assays
Protocol: as §5, §1, §2, §6, §7

S. aureus CW113379 = assay: microbe, parasite or virus in culture; details: broth microdilution per CSLI guidelines, cation-adjusted Mueller Hinton Broth 2, 5 × 10^5 CFU/mL, 37 °C, 20 h, range 64–0.125 µg/mL, average of three repeat assays
Protocol: as §5, §1, §2, §6, §7

[1] = molecular target: the molecule itself; assay: SEC; analytical size exclusion chromatography in phosphate-buffered saline (pH 7.4), UV 210 nm

MAGFLKVVQLLAKYGSKAVQWAWANKGKILDWLNAGQAIDWVVSKIKQILGIK-NH2 [L-LnqQ, L-lacticin Q (Met^1-Lys^53)]
Minimum inhibitory concentration S. epidermidis CW130500 (S. epidermidis CW130500): 16 µg/mL
Minimum inhibitory concentration E. faecalis CW133346 (E. faecalis CW133346): 4 µg/mL
Minimum inhibitory concentration E. faecium CW130826 (E. faecium CW130826): 2 µg/mL
Minimum inhibitory concentration E. faecium CW131126 (E. faecium CW131126): 2 µg/mL
Minimum inhibitory concentration S. aureus CW115852 (S. aureus CW115852): 64 µg/mL
Minimum inhibitory concentration E. faecalis CW133003 (E. faecalis CW133003): 2 µg/mL
Minimum inhibitory concentration S. aureus AC29213 (S. aureus AC29213): 16 µg/mL
Minimum inhibitory concentration S. aureus CW114125 (S. aureus CW114125): 32 µg/mL
Minimum inhibitory concentration S. epidermidis CW131612 (S. epidermidis CW131612): 8 µg/mL
Minimum inhibitory concentration S. aureus CW113379 (S. aureus CW113379): 32 µg/mL

B1: aureocin A53 (L-AucA, wild type) (natural protein)
chain: MSWLNFLKYIAKYGKKAVSAAWKYKGKVLEWLNVGPTLEWVWQKLKKIAGL
notes: also called AucA-wt; wild-type AucA; source: synthetic: native chemical ligation of two peptide segments and desulfurization, purified by semi-preparative HPLC
stoichiometry N [1]: 2

B2: AucA-W22L (natural protein)
chain: MSWLNFLKYIAKYGKKAVSAALKYKGKVLEWLNVGPTLEWVWQKLKKIAGL
notes: also called W22L variant; source: synthetic: automated SPPS on rink amide protide resin
binding result [1]: binds
